The values below come from patent US9617222B1, “Alkynyl indazole derivative and use thereof” (SENJU PHARMACEUTICAL CO., LTD., priority 2014, dated 2017).

The subject of data set [1] is Human Retinal Microvascular Endothelial (hRMVE) Cells (hRMVEC). The data set is described as follows: Growth inhibition of hRMVE cells under VEGF stimulation (MTT assay). To be noted: recombinant human VEGF, 48 hours, read-out: Cell Growth Inhibition Activity. The format is cell-based. (In general: Tetrazolium dyes change colour on reduction, which living cells bring about.)

A short description of data set [2]: Solubility test in 0.1% phosphate buffer solution (pH 7.0). It is filed as physicochemical. Particulars: for solubility: aqueous buffer, thermodynamic from solid, 0.1% phosphate buffer solution (pH 7.0), room temperature overnight. On the procedure: The mixture was subjected to ultrasonic irradiation for 30 seconds, and then shaken at room temperature overnight. The resulting suspension was left at rest at room temperature for 30 minutes, then filtered through a chromatography disc (0.20 μm) to prepare a sample solution. The sample solution and the standard solution were analyzed by LC-MS (product name: ACQUITY UPLC H-CLASS SYSTEM and Xevo TQ-S, produced by Nihon Waters K.K.), and a solubility was calculated from the obtained peak area value by an external standard method.

Data set [3] in a line: Drug penetrating test to retina/choroid after instillation. It is filed as in vivo, rabbit (Japanese white rabbit). To be noted: rabbit, 2 hours after instillation; for concentration at 2 h: Japanese white, retina/choroid, topical, 50 μL/eye of 0.25% suspension, 0.25% suspension eye drop 50 μL/eye, average ± standard deviation; for drug penetrating concentration in the retina/choroid compared with compound B: p≦0.05. On the procedure: For the compounds 8, 27 and B produced in Examples, drug penetrating concentrations to retina/choroid tissues after instillation were measured. […] In order to measure the drug concentration in the retina/choroid tissues, the eye drop was administered to rabbits (Japanese white rabbit) at 50 μL/eye, the rabbits were euthanized 2 hours after instillation, and the eyeballs were excised. The excised eyeballs were frozen with liquid nitrogen, split into two parts along the equatorial plane, and then the retina/choroid tissues were sampled from the posterior eye segment. In order to extract the compound from the sampled tissues, the tissues were finely cut in methanol to prepare a lysate, and subsequently the lysate was centrifuged to collect the supernatant. To the extracted solution of the compound from the supernatant, an equivalent amount of ultrapure water was added, and the solution was filtered through a membrane filter (0.22 μm), and the filtrate was designated as a final measurement solution. The drug concentration in the filtrate was analyzed by liquid chromatography mass spectrometry (LC/MS/MS), and the compound concentration in the retina/choroid tissues was calculated from the peak area value obtained by an external standard method. Analysis conditions of LC/MS/MS are as below. For the compound concentration in the retina/choroid, null hypothesis test was carried out using JMP (registered trademark) (SAS Institute Inc.), the outlier was excluded, and then the average value±standard deviation was used.

Converted amounts (≈) assume the structure as drawn.

Take `CNC(=O)c1ccccc1Sc1ccc2c(C#Cc3ccc(NC(=O)NCCOCCOCCOC)cc3)n[nH]c2c1` [Compound 8, 2-[(3-{[4-(3-{2-[2-(2-methoxyethoxy)ethoxy]ethyl}ureido)phenyl]ethynyl}-1H-indazol-6-yl)thio]-N-methylbenzamide]: in data set [1], the IC50 stood at 1.2 nM. Besides, in data set [2], the solubility was found to be 1 µg/mL (≈ 1.7 µM). Also, in data set [3], the concentration at 2 h stood at 2.6 ± 1.04 ng/g and the “drug penetrating concentration in the retina/choroid compared with compound B” value is “significantly higher”.

On to `CNC(=O)c1ccccc1Sc1ccc2c(C#Cc3ccc(NCCOCCOCCOC)cc3)n[nH]c2c1` [Compound 27, 2-[(3-{[4-({2-[2-(2-methoxyethoxy)ethoxy]ethyl}amino)phenyl]ethynyl}-1H-indazol-6-yl)thio]-N-methylbenzamide], for which the IC50 in data set [1] is 1.2 nM. In data set [2], this compound came in with a solubility of 0.48 µg/mL (≈ 0.881 µM). In data set [3], the concentration at 2 h worked out at 1.62 ± 0.68 ng/g and the “drug penetrating concentration in the retina/choroid compared with compound B” value is recorded as “significantly higher”.

On to `CNC(=O)c1ccccc1Sc1ccc2c(C#Cc3ccccn3)n[nH]c2c1` [Compound B, 6-[2-(methylcarbamoyl)phenylsulfanyl]-3-[2-(pyridine-2-yl)ethynyl]indazole, reference compound], for which the IC50 in data set [1] turned out to be 1.6 nM. The compound further came in with a solubility in data set [2] of 0.084 µg/mL (≈ 0.218 µM). Besides, the concentration at 2 h in data set [3] was determined as 0.51 ± 0.1 ng/g.

On to `CNC(=O)c1ccccc1Sc1ccc2c(/C=C/c3ccccn3)n[nH]c2c1` [Compound A, 6-[2-(methylcarbamoyl)phenylsulfanyl]-3-E-[2-(pyridine-2-yl)ethenyl]indazole, reference compound], for which the “photostability in solution (in words)” value is recorded as “poor photostability”. The same compound displayed a solubility in data set [2] of 0.045 µg/mL (≈ 0.116 µM). Also, in data set [2] (aqueous solution), the “solubility in aqueous solution (in words)” value is reported as “low”.

One may read the solubility as the dissolved amount per volume that the medium holds. The low end stands for little dissolved substance, the high end for much dissolved substance.
